Data on 9 compounds can be found in PubChem BioAssay (NCI).

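Cells were grown in 96-well plates and exposed to each compound for 48 hours at five concentrations; endpoints were interpolated linearly between bracketing concentrations, or set to the highest concentration if not reached. TGI marks complete inhibition of growth.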

Among the test systems are HL-60(TB) leukemia; 786-0 renal; BT-549 breast; SNB-19 CNS; NCI-H23 lung; SF-268 CNS; UACC-62 melanoma; HT29 colon; OVCAR-4 ovarian; EKVX NSCLC; U251 CNS; HCT-116 colon; OVCAR-8 ovarian; MCF7 breast; OVCAR-3 ovarian; RPMI-8226 leukemia.
Common to all, as to assay: inhibition of tumour cell growth, NCI panel, 48 h

With `CC(=O)C(C)(C)CCC(C)(C)C(C)=O`, the TGI in the test with HL-60(TB) leukemia, in the test with 786-0 renal, in the test with BT-549 breast, with SNB-19 CNS, with NCI-H23 lung and with SF-268 CNS was above 100 µM each time. Also, the TGI in the test with UACC-62 melanoma, in the test with HT29 colon, with OVCAR-4 ovarian, in the test with EKVX NSCLC, with U251 CNS and in the test on HCT-116 colon was above 100 µM in each case. The TGI in the test with OVCAR-8 ovarian and with MCF7 breast was above 100 µM throughout.
For `Cc1ncc(COP(=O)(O)O)c(/C=C2\SC(=S)NC2=O)c1O`, the TGI in the test on OVCAR-3 ovarian, with RPMI-8226 leukemia, with 786-0 renal, in the test with BT-549 breast, in the test with SNB-19 CNS and with NCI-H23 lung was above 100 µM throughout. In addition, the TGI with SF-268 CNS, in the test on UACC-62 melanoma, with HT29 colon, in the test on OVCAR-4 ovarian, with EKVX NSCLC and in the test on U251 CNS was above 100 µM in each case. For the same compound, the TGI in the test with HCT-116 colon, with OVCAR-8 ovarian and in the test on MCF7 breast was above 100 µM throughout.
For the compound `CC1(C)Oc2ccc3c(=O)cc(-c4ccccc4)oc3c2C1C(=O)O` (stereo not drawn), the TGI with HL-60(TB) leukemia, with OVCAR-3 ovarian, with 786-0 renal, in the test on BT-549 breast, with NCI-H23 lung and with SF-268 CNS was above 100 µM in each case. The TGI in the test with UACC-62 melanoma, in the test with HT29 colon, with OVCAR-4 ovarian, in the test with EKVX NSCLC, with U251 CNS and with HCT-116 colon was above 100 µM throughout. Besides, the TGI in the test on OVCAR-8 ovarian and in the test with MCF7 breast was above 100 µM throughout.
Consider `Cn1c(=O)sc2cc(C(=S)N3CCCCC3)ccc21`, for which the TGI is 42.7 µM in the test with HL-60(TB) leukemia; above 100 µM in the test with OVCAR-3 ovarian; above 100 µM in the test on RPMI-8226 leukemia; above 100 µM in the test on 786-0 renal; above 100 µM in the test on BT-549 breast; above 100 µM in the test on SNB-19 CNS. Moreover, the TGI in the test on NCI-H23 lung, in the test on SF-268 CNS, in the test with UACC-62 melanoma, in the test with HT29 colon, in the test with EKVX NSCLC and with U251 CNS was above 100 µM throughout. For the same compound, the TGI with HCT-116 colon, with OVCAR-8 ovarian and in the test on MCF7 breast was above 100 µM throughout.
As to `CCN(CC)C(=O)Cn1c2c(c3ccccc31)CCCC2`, the TGI in the test with HL-60(TB) leukemia, in the test with RPMI-8226 leukemia, with 786-0 renal, in the test on BT-549 breast, in the test on SNB-19 CNS and in the test with NCI-H23 lung was above 100 µM in each case. Further, the TGI with SF-268 CNS, in the test with UACC-62 melanoma, with HT29 colon, in the test on EKVX NSCLC, in the test on HCT-116 colon and in the test with OVCAR-8 ovarian was above 100 µM in each case. The compound further gave a TGI in the test on MCF7 breast above 100 µM.
In the case of `CC(C)Oc1cccc(N2C(Nc3ccccc3)=Nc3ccncc3S2(=O)=O)c1`, the TGI in the test with HL-60(TB) leukemia is 6.01 µM; in the test on OVCAR-3 ovarian, 52.4 µM; in the test with 786-0 renal, 52.5 µM; in the test with BT-549 breast, 66.4 µM; in the test on SNB-19 CNS, above 100 µM; in the test with NCI-H23 lung, above 100 µM. For the same compound, the TGI in the test with SF-268 CNS, in the test with UACC-62 melanoma, in the test with HT29 colon, in the test on OVCAR-4 ovarian, in the test on EKVX NSCLC and in the test on U251 CNS was above 100 µM in each case. The TGI was above 100 µM with HCT-116 colon, 43.4 µM in the test with OVCAR-8 ovarian and above 100 µM in the test with MCF7 breast.
Regarding `O=[N+]([O-])/C(C(Cl)=C(Cl)Cl)=C(/Nc1cccc2cccnc12)n1nnc2ccccc21`, the TGI in the test on OVCAR-3 ovarian was found to be 23.7 µM; with RPMI-8226 leukemia, 83.6 µM; in the test with 786-0 renal, 43.8 µM; in the test on BT-549 breast, 35.8 µM; in the test on SNB-19 CNS it was 33.1 µM; in the test with NCI-H23 lung, 34.7 µM. In addition, the TGI in the test with SF-268 CNS was 37.4 µM; in the test with HT29 colon it was 40.5 µM; with OVCAR-4 ovarian, 45.7 µM; in the test with EKVX NSCLC it was above 100 µM; in the test with HCT-116 colon, above 100 µM; in the test on OVCAR-8 ovarian, 32 µM. The compound also registered a TGI with MCF7 breast of 46.3 µM.
Turning to `CCOC1=C(c2ccccc2)N2CCCCC2O1` (stereo not drawn), the TGI in the test on OVCAR-3 ovarian was above 44.5 µM; with RPMI-8226 leukemia, above 24 µM; with 786-0 renal, above 100 µM; in the test with BT-549 breast, 26.3 µM; with SNB-19 CNS, above 100 µM; in the test on NCI-H23 lung it was above 36.4 µM. The TGI is 48.1 µM with SF-268 CNS; 10 µM in the test on UACC-62 melanoma; 16.9 µM with HT29 colon; above 100 µM with EKVX NSCLC; above 100 µM in the test with U251 CNS; 15.2 µM with HCT-116 colon. Further, the TGI was above 38.5 µM in the test on OVCAR-8 ovarian and 51.9 µM with MCF7 breast.
For the compound `COc1cc(Oc2nc3cc(F)c(F)cc3nc2-c2ccccc2)cc(OC)c1OC`, the TGI with HL-60(TB) leukemia, in the test with OVCAR-3 ovarian, with 786-0 renal, in the test with BT-549 breast, in the test with SNB-19 CNS and in the test with NCI-H23 lung was above 100 µM in each case. The TGI in the test with SF-268 CNS, in the test with UACC-62 melanoma, with HT29 colon, with OVCAR-4 ovarian, in the test on EKVX NSCLC and in the test on U251 CNS was above 100 µM in each case. Also, the TGI in the test with HCT-116 colon, in the test on OVCAR-8 ovarian and in the test with MCF7 breast was above 100 µM throughout.
